In ChEMBL document CHEMBL1201862, “PubChem BioAssay data set” (2004):
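Grown in 96-well plates, cells were treated for 48 hours with each compound at five concentrations. Insufficient inhibition: endpoint recorded as highest concentration tested. GI50: concentration for 50% inhibition of growth.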 Calls of active or inactive are those of the source. Cut-off read from the data, not from the text of the source: active = GI50 up to about 1.1 µM and inactive = higher.

Key:
Assay in all cases: NCI tumour cell line growth inhibition, 48 h
NCI-H226 = test system: NCI-H226
A549 = test system: A549
A498 = test system: A498
CAKI-1 = test system: CAKI-1
MDA-MB-231 = test system: MDA-MB-231
M14 = test system: M14
HCT-15 = test system: HCT-15
UO-31 = test system: UO-31
OVCAR-3 = test system: OVCAR-3
MDA-MB-435 = test system: MDA-MB-435
TK-10 = test system: TK-10
RPMI-8226 = test system: RPMI-8226
SF-295 = test system: SF-295
OVCAR-8 = test system: OVCAR-8
SK-MEL-28 = test system: SK-MEL-28
SK-MEL-5 = test system: SK-MEL-5
Hs-578T = test system: Hs-578T
MOLT-4 = test system: MOLT-4
EKVX = test system: EKVX
NCI-H23 = test system: NCI-H23

Row | Structure (SMILES) | GI50 (NCI-H226) | GI50 (A549) | GI50 (A498) | GI50 (CAKI-1) | GI50 (MDA-MB-231) | GI50 (M14) | GI50 (HCT-15) [µM] | GI50 (UO-31) | GI50 (OVCAR-3) | GI50 (MDA-MB-435) | GI50 (TK-10) | GI50 (RPMI-8226) | GI50 (SF-295) | GI50 (OVCAR-8) | GI50 (SK-MEL-28) | GI50 (SK-MEL-5) | GI50 (Hs-578T) | GI50 (MOLT-4) | GI50 (EKVX) | GI50 (NCI-H23)
1 | Cc1ccc(S(=O)(=O)N/N=C2\C(=O)Nc3cc(O)c(C(=O)O)cc32)cc1 | > 100 µM (inactive) | > 100 µM (inactive) | > 100 µM (inactive) | > 100 µM (inactive) | > 100 µM (inactive) | > 100 µM (inactive) | > 100 | > 100 µM (inactive) | > 100 µM (inactive) | > 100 µM (inactive) | > 100 µM (inactive) | > 100 µM (inactive) | > 100 µM (inactive) | > 100 µM (inactive) | > 100 µM (inactive) | > 100 µM (inactive) | > 100 µM (inactive) | > 100 µM (inactive) | 61.8 µM (inactive) | > 100 µM (inactive)
2 | CCN1CCC(O)(/C=C/c2ccc(C(C)C)cc2)C(C(=O)/C=C/c2ccc(C(C)C)cc2)C1 (stereo not drawn) | 2.82 µM (inactive) | 3.37 µM (inactive) | 6.38 µM (inactive) | 4.34 µM (inactive) | 1.87 µM (inactive) | 3.1 µM (inactive) | 2 | 2.96 µM (inactive) | 2.84 µM (inactive) | 2.96 µM (inactive) | 2.34 µM (inactive) | 0.697 µM (active) | 2.9 µM (inactive) | 1.96 µM (inactive) | 4.51 µM (inactive) | 4.42 µM (inactive) | 2.31 µM (inactive) | 1.59 µM (inactive) | 2.22 µM (inactive) | 2.38 µM (inactive)
3 | O=C1C2CCN(CC2)C1(CO)CO | 28.1 µM (inactive) | 78.3 µM (inactive) | > 51.1 µM (inactive) | 19.2 µM (inactive) | 20.9 µM (inactive) | 18.3 µM (inactive) | 16.1 | 16.1 µM (inactive) | 15.9 µM (inactive) | 61.5 µM (inactive) | 17.3 µM (inactive) | 17.8 µM (inactive) | > 100 µM (inactive) | 28.1 µM (inactive) | 26.4 µM (inactive) | 47.4 µM (inactive) | 31.3 µM (inactive) | 7.01 µM (inactive) | 49.7 µM (inactive) | 25.2 µM (inactive)
4 | C=C(C)c1cc(C(C)(C)C)cc(C(=C)C)c1S(C)(=O)=O | > 100 µM (inactive) | > 100 µM (inactive) | > 100 µM (inactive) | > 100 µM (inactive) | 3.91 µM (inactive) | > 100 µM (inactive) | > 100 | > 100 µM (inactive) | > 100 µM (inactive) | > 100 µM (inactive) | > 100 µM (inactive) | > 100 µM (inactive) | > 100 µM (inactive) | > 100 µM (inactive) | > 100 µM (inactive) | > 100 µM (inactive) | > 100 µM (inactive) | > 100 µM (inactive) | > 100 µM (inactive) | > 100 µM (inactive)
5 | O=C1c2cc(O)c(O)cc2O[C@H](c2ccc(O)c(O)c2)[C@H]1O | 85.1 µM (inactive) | > 100 µM (inactive) | > 100 µM (inactive) | > 100 µM (inactive) | > 100 µM (inactive) | > 100 µM (inactive) | > 100 | > 100 µM (inactive) | > 100 µM (inactive) | > 100 µM (inactive) | > 100 µM (inactive) | > 100 µM (inactive) | > 100 µM (inactive) | > 100 µM (inactive) | > 100 µM (inactive) | > 100 µM (inactive) | > 100 µM (inactive) | > 100 µM (inactive) | > 100 µM (inactive) | 45.4 µM (inactive)
6 | C/C(CC(O)(C(F)(F)F)C(F)(F)F)=N\NC(N)=O | > 10 µM (inactive) | > 10 µM (inactive) | > 10 µM (inactive) | > 10 µM (inactive) | > 10 µM (inactive) | > 10 µM (inactive) | > 10 | > 10 µM (inactive) | > 10 µM (inactive) | > 10 µM (inactive) | > 10 µM (inactive) | > 10 µM (inactive) | > 10 µM (inactive) | > 10 µM (inactive) | > 10 µM (inactive) | > 10 µM (inactive) | > 10 µM (inactive) | > 10 µM (inactive) | > 10 µM (inactive) | > 10 µM (inactive)
7 | N#CC1(C#N)C2C=CC(C3CC=CC32)C1(C#N)C#N (stereo not drawn) | > 50 µM (inactive) | 10.7 µM (inactive) | 9.84 µM (inactive) | 2.08 µM (inactive) | 9.79 µM (inactive) | 2.01 µM (inactive) | 1.98 | 2.17 µM (inactive) | 2.45 µM (inactive) | 7.16 µM (inactive) | 2 µM (inactive) | 2.35 µM (inactive) | 21.5 µM (inactive) | 4.72 µM (inactive) | 10.9 µM (inactive) | 7.73 µM (inactive) | 17.9 µM (inactive) | 1.48 µM (inactive) | 12.3 µM (inactive) | 8.32 µM (inactive)
8 | CCCCCCOc1ccc(C(=O)N(C)O)cc1 | 13.5 µM (inactive) | 12.1 µM (inactive) | 26.5 µM (inactive) | 15.6 µM (inactive) | 41.9 µM (inactive) | 12.6 µM (inactive) | 4.41 | 9.48 µM (inactive) | 9.68 µM (inactive) | 23.4 µM (inactive) | 46.3 µM (inactive) | 7.55 µM (inactive) | 9.55 µM (inactive) | 11.7 µM (inactive) | 40.7 µM (inactive) | 17.6 µM (inactive) | 65.2 µM (inactive) | 4.97 µM (inactive) | 20.3 µM (inactive) | 11.9 µM (inactive)
9 | CC(=O)NC1=C(C)C(=O)c2c(nc3n2CC[C@H]3OC(C)=O)C1=O | 9.77 µM (inactive) | 8.32 µM (inactive) | 16.8 µM (inactive) | 3.98 µM (inactive) | 1.37 µM (inactive) | 2.06 µM (inactive) | 3.58 | 3.01 µM (inactive) | 0.0982 µM (active) | 0.774 µM (active) | 8.13 µM (inactive) | 1.36 µM (inactive) | 2.1 µM (inactive) | 1.55 µM (inactive) | 2.22 µM (inactive) | 3.09 µM (inactive) | 3.21 µM (inactive) | 0.243 µM (active) | 5.25 µM (inactive) | 2.61 µM (inactive)
10 | CC(=O)NNc1nc(C)c(C(/C=C/c2ccc3c(c2)OCO3)=N/Nc2ccccc2)s1 | > 100 µM (inactive) | > 100 µM (inactive) | > 100 µM (inactive) | > 100 µM (inactive) | > 100 µM (inactive) | > 100 µM (inactive) | > 100 | > 100 µM (inactive) | > 100 µM (inactive) | > 100 µM (inactive) | > 100 µM (inactive) | > 100 µM (inactive) | > 100 µM (inactive) | > 100 µM (inactive) | > 100 µM (inactive) | > 100 µM (inactive) | > 100 µM (inactive) | > 100 µM (inactive) | > 100 µM (inactive) | > 100 µM (inactive)
11 | CC1=NN(c2nc(N)nc(/C(C#N)=C\C3COc4ccccc4C3=O)n2)C(C)(C)C1 (stereo not drawn) | 22.8 µM (inactive) |  | 17.9 µM (inactive) | 23.6 µM (inactive) | 30.1 µM (inactive) | 23.7 µM (inactive) | 22.9 | 18.9 µM (inactive) | 22.6 µM (inactive) | 32.1 µM (inactive) | 27.6 µM (inactive) | 17.7 µM (inactive) | 31.3 µM (inactive) | 25.6 µM (inactive) | 21.6 µM (inactive) | 18.7 µM (inactive) | 24 µM (inactive) | 21.8 µM (inactive) | 22.5 µM (inactive) | 27 µM (inactive)
12 | CCc1[nH]c(=O)nc(N)c1-c1ccc(N2CCCCC2)c([N+](=O)[O-])c1 | > 100 µM (inactive) | > 100 µM (inactive) | > 100 µM (inactive) | > 100 µM (inactive) | 98.4 µM (inactive) | > 100 µM (inactive) | > 100 | > 100 µM (inactive) | > 100 µM (inactive) | > 100 µM (inactive) | > 100 µM (inactive) | > 100 µM (inactive) | > 100 µM (inactive) | > 100 µM (inactive) | > 100 µM (inactive) | > 100 µM (inactive) | 53.2 µM (inactive) | > 100 µM (inactive) | > 100 µM (inactive) | > 100 µM (inactive)
13 | C=CCOc1ccc(N)c([N+](=O)[O-])c1 | > 100 µM (inactive) | > 100 µM (inactive) | 33.3 µM (inactive) | > 100 µM (inactive) | > 10 µM (inactive) | > 100 µM (inactive) | > 100 | 94.4 µM (inactive) |  | > 100 µM (inactive) | > 100 µM (inactive) | > 100 µM (inactive) | > 100 µM (inactive) | > 100 µM (inactive) | > 100 µM (inactive) | > 100 µM (inactive) | > 100 µM (inactive) | > 100 µM (inactive) | > 100 µM (inactive) | > 100 µM (inactive)
14 | CCCCC1CCCCCCc2[nH]c(/C=C3\N=C(c4ccc[nH]4)C=C3OC)cc21 (stereo not drawn) | 0.205 µM (active) | < 0.0139 µM (active) | 0.515 µM (active) | 0.0502 µM (active) | < 0.024 µM (active) | 0.0136 µM (active) | < 0.01 | 0.0194 µM (active) | < 0.01 µM (active) | < 0.01 µM (active) | 0.338 µM (active) | < 0.01 µM (active) | < 0.0191 µM (active) | < 0.0223 µM (active) | < 0.0162 µM (active) | 0.0128 µM (active) | 0.0331 µM (active) | < 0.01 µM (active) | < 0.0167 µM (active) | < 0.0221 µM (active)
